From paper PMC6014988, “Precision therapeutic targeting of human cancer cell motility” (Nature Communications, 2018)
Where two headings read alike, the source gives them in different places.

How the values were obtained:
[1] = Three-day MTT cell growth inhibition assay, PC3M; assay type: cell-based, human; settings: human, PC3M cells; PC3M; 3 days
Source text: (§1) Assays were in replicates of N = 3, and were repeated. […]
(§2) Values are the mean±SEM of a single experiment, in
(§3) replicates of N=4, repeated at least once (also N=4).
(§4) Supplementary Figure 1b. Synthetic round #2.

[2] = system: PC3M; experiment: Three-day MTT cell growth inhibition assay, PC3M; assay type: cell-based, human
Source text: as §1, §2, §3, §4

[3] = Plasma KBU2046 concentration after dosing in chow; assay type: in vivo; settings: Balb/c athymic, mouse, oral
Protocol: For determination of pharmacokinetic (PK) parameters, KBU2046 was administered by either intravenous injection or oral gavage to groups of N = 3 CD1(ICR) mice at 0 (i.e., vehicle only), 25, or 100 mg/kg. Blood was collected into EDTA by terminal cardiac puncture before drug administration (i.e., baseline) and at 5, 10, 15, 30, 45, 60, 90, 120, 180, 240, 360, 480, 960, 1440 min after administration. In separate experiments, as described above, Balb/c athymic mice were dosed with KBU2046 incorporated into chow for 35 days, after which blood was collected by terminal cardiac puncture. Resultant plasma (~250 μl/mouse) was stored at −80 °C.
Plasma KBU2046 concentrations were measured in duplicate by liquid chromatography-tandem mass spectrometry after sample preparation by solid-phase extraction. […] The mass-to-charge ratios of the precursor-to-product ion reactions monitored were 243.5 → 125.1 for KBU2046 and 257.0 → 165.0 for the internal standard. […]

[4] = system: phosphoproteins in PC3 cells; experiment: PhosphoScan LC-MS/MS of BL4176 immunoprecipitates; assay type: cell-based, human
Protocol: The Kinoview™ and PhosphoScan™ assays were performed by Cell Signaling Technology Inc.
Supplementary Figure 12. Identification of the 83 kDa band using a proteomic approach.
(a) PC3 cells were pre-treated with 10 µM KBU2046 or vehicle (control) for 3 days, then treated with TGFβ for 1 hr, and the resultant cell lysates were subjected to immunoprecipitation with BL4176 (Kinoview® phospho-motif antibody). Proteins bound in this manner were analyzed in replicates of N=2 using PhosphoScan™ technology. This identified 483 unique phosphopeptide assignments from 306 parent proteins, with a mean false discovery rate of 0.30% (estimated via Sorcerer search of composite human database of forward and reverse protein entries). We only considered proteins where the average values for treatment and control were each 3 times that of background. Further, we required each of the N=2 replicate values (used to calculate the average) to be >/= 2.5 fold above background. We were only interested in situations in which protein decreased with KBU2046, and we required that decrease to be >/= 2.5 fold, compared to control.
According to these parameters, there were 19 phospho-proteins whose expression decreased in cells treated with KBU2046, compared to control. These are depicted above. Recognizing that each of these proteins may have value, we elected to remain focused on the 83 kDa protein, and therefore only considered proteins +/- 5 kDa of this value. Only heat shock protein 90 (HSP90)β

[5] = system: 284 kinases and 20 phosphatases; experiment: KinaseProfiler and PhosphataseProfiler assay platforms; assay type: biochemical
Source text: There were two initial false positives (for a false positive rate of 0.4%), that were subsequently found to be negative in a dedicated follow up analysis. Specific and important negative findings include MKK4, p38 MAPK (α, β, γ and δ […]
by competing for phospho-acceptor binding.
Kinase assay system #2. The Kinex™ kinase assay system (Kinexus Proteomics Company).
This platform uses recombinant human protein kinases expressed in an insect expression system, thus allowing an avenue for post-translational modification. Also, this platform measures inhibition of ATP binding. This platform putatively measured 200 different kinases, and we […]
tested KBU2046 at 1 and 10 μM. […] There were two […]
important technical issues. First, at 10 μM KBU2046 interfered with the colorimetric-based […]
However, while considering the above factors, this screen was informative for a number of […]
function by competing for ATP binding in the active site.
Kinase assay system #3. KinaseProfiler™ and PhosphataseProfiler™ assay platforms (Millipore). This platform is radiometric-based (considered gold standard). It measures competition with respect to ATP for kinases and substrate protein for phosphatases. Most proteins were expressed via an insect-based system, and it evaluates a panel of 284 kinases and 20 phosphatases. There were two initial false positives, for a false positive rate of 0.7%, but both […]

O=C1c2ccccc2OCC1c1ccc(F)cc1 (racemic) [KBU2046, (±)-3(4-fluorophenyl)chroman-4-one]
viability at 3 days, 50 µM [1]: 100%
IC20 ([2]; Homo sapiens, PC-3M, 72 h, PC3M, concentration inhibiting cell growth by 20% after 3 days): > 50 µM
IC50 ([2]; Homo sapiens, PC-3M, 72 h, PC3M, concentration inhibiting cell growth by 50% after 3 days): > 50 µM
cell growth inhibition ([2]; PC3-M cells, three day MTT, SAR rounds): no growth inhibitory
concentration at 35 days ([3]; 150 mg/kg, mice whose metastasis were suppressed by 92%, read-out: plasma concentration): 24 nM
concentration at 35 days ([3]; athymic mice, KBU2046 in chow, doses that decreased metastasis, read-out: plasma concentrations): 1.1 to 24 nM
fold change, MFAP1 ([4]; AALDALNT*DDENDEEEYEAWK): -21.8 fold
fold change, UBL5 ([4]; CNT*DDTIGDLKK): -2.9 fold
fold change, PITSLRE ([4]; DLLS*DLQDIS*DSER): -3.3 fold
fold change, VAMP1 ([4]; DQKLS*ELDDR): -3.6 fold
fold change, PIMT ([4]; DRPHAS*GT*DGDES*EEDPPEHKPSK): -4.7 fold
fold change, PIMT ([4]; DRPHASGT*DGDES*EEDPPEHKPSK): -3.0 fold
fold change, HSP90B ([4]; EIS*DDEAEEEKGEKEEEDKDDEEKPK): -6.6 fold
fold change, FIP1L1 ([4]; ERDHS*PTPSVFNS*DEER): -2.9 fold
fold change, IWS1 ([4]; GHHVT*DSENDEPLNLNAS*DSESEELHR): -3.2 fold
fold change, NIN ([4]; HVLS*DLEDDEVR): -3.1 fold
fold change, PGRMC2 ([4]; LLKPGEEPS*EYT*DEEDTKDHNK, PC3, 10 µM 3 days, TGFβ 1 hr): -2.5 fold
fold change, LEO1 ([4]; MQNT*DDEERPQLS*DDER): -3.4 fold
fold change, NudC ([4]; NGSLDSPGKQDT*EEDEEEDEKDKGK): -2.5 fold
decrease in abundance of phosphorylated Ser226 on HSP90β ([4]; PC3 cells, KBU2046 then TGFβ): 6.6 fold
fold change, BAT2D1 ([4]; S*ES*SDFEVVPK): -2.7 fold
fold change, RBM5 ([4]; SEDGYHS*DGDYGEHDYR): -2.7 fold
fold change, CLASP2 ([4]; SRS*DIDVNAAAGAK): -2.4 fold
fold change, SSB ([4]; TKFAS*DDEHDEHDENGATGPVK): -4.5 fold
fold change, SEC62 ([4]; VGPGNHGTEGS*GGERHS*DTDS*DRR): -2.8 fold
fold change, SEC62 ([4]; VGPGNHGTEGSGGERHS*DT*DSDRR): -2.6 fold
inhibition of phosphatase activity ([5]; 20 phosphatases): No evidence supports inhibition
inhibition of kinase activity ([5]; radiometric, 284 kinases): no evidence that KBU2046 inhibits
